Test results published in patent US8129163B2, “Gene suitable for alcohol dehydrogenase, vector and transformant” (Kaneka Corporation, priority 2006, dated 2012).

Assays:
[1] = tested on: RMA; format: biochemical, Candida maltosa IFO 1977 strain
[2] = tested on: enzyme derived from Candida parapsilosis IFO 1396 strain; conditions: cited from earlier work

O=C(O)CN(CCN(CC(=O)O)CC(=O)O)CC(=O)O [Ethylenediaminetetraacetic acid]
Relative activity (%) of RMA after treatment with inhibitor [1]: 12.9% | inhibition of RMA (in words) [1]: inhibited | inhibition of enzyme activity (in words) [2]: not inhibited
